PubChem BioAssay (NCI)
“And” between values parts separate entries of the source, which are not always exact repeats. Identical values can stand only once.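 In this assay, cells in 96-well plates receive the compound at five concentrations for 48 hours. Endpoints are linearly interpolated between the surrounding concentrations. Here, GI50 denotes the concentration required for 50% inhibition of growth. At the TGI there is no net growth.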

Tests used:
Assay in all cases: inhibition of tumour cell growth, NCI panel, 48 h
IGROV1 ovarian = tested on: IGROV1 ovarian
K-562 leukemia = tested on: K-562 leukemia
OVCAR-8 ovarian = tested on: OVCAR-8 ovarian
RPMI-8226 leukemia = tested on: RPMI-8226 leukemia
SK-MEL-5 melanoma = tested on: SK-MEL-5 melanoma
SK-OV-3 ovarian = tested on: SK-OV-3 ovarian
SN12C renal = tested on: SN12C renal
SNB-75 CNS = tested on: SNB-75 CNS
SR leukemia = tested on: SR leukemia
UACC-62 melanoma = tested on: UACC-62 melanoma

SMILES	GI50 (IGROV1 ovarian) [µM]	TGI (IGROV1 ovarian)	GI50 (K-562 leukemia) [µM]	TGI (K-562 leukemia)	GI50 (OVCAR-8 ovarian) [µM]	TGI (OVCAR-8 ovarian)	GI50 (RPMI-8226 leukemia) [µM]	TGI (RPMI-8226 leukemia)	GI50 (SK-MEL-5 melanoma) [µM]	TGI (SK-MEL-5 melanoma)	GI50 (SK-OV-3 ovarian) [µM]	TGI (SK-OV-3 ovarian)	GI50 (SN12C renal) [µM]	TGI (SN12C renal)	GI50 (SNB-75 CNS) [µM]	TGI (SNB-75 CNS)	GI50 (SR leukemia) [µM]	TGI (SR leukemia)	GI50 (UACC-62 melanoma) [µM]	TGI (UACC-62 melanoma) [µM]
O=C(CI)Nc1ccc(O)c2ccccc12	0.296	0.926 µM	0.328	> 100 µM	1.93	7.15 µM	1.65	4.61 µM	1.63	3.08 µM	4.27	14.8 µM	1.61	3.3 µM	1.61	4.98 µM	0.726	3.75 µM	1.67	3.44
COC(=O)C(CC(=O)Nc1ccc(Cl)c(Cl)c1)C(=O)C(=O)Nc1ccc(Cl)c(Cl)c1 (configuration not stated)	–	> 100 µM	–	> 100 µM	–	> 100 µM	–	> 100 µM	–	> 100 µM	–	> 100 µM	–	> 100 µM	–	> 100 µM	–	> 100 µM	–	> 100
CCCCCCCCCCCCCCCCOP(=O)([O-])OCC[N+](C)(C)C	0.901	3.7 µM and 14 µM	–	64.9 µM	3.31	11.8 µM and 48.3 µM	0.39	–	1.92	5.35 µM and 52 µM	1.2	9.4 µM and 57.1 µM	2.74	10.7 µM and 56.6 µM	1.43	–	0.546	3.46 µM and 28.5 µM	1.34	–
N/N=C(\c1nc2ccc(Cl)cc2[nH]c1=O)C(O)c1ccc(Cl)c(Cl)c1 (configuration not stated)	–	> 100 µM	–	> 100 µM	–	> 100 µM	–	> 100 µM	–	> 100 µM	–	> 100 µM	–	> 100 µM	–	> 100 µM	–	> 100 µM	–	> 100
CCCCCCCC(=O)SCC/C=C/[C@@H]1CC(=O)NCc2nc(cs2)C2=N[C@@](C)(CS2)C(=O)N[C@@H](C(C)C)C(=O)N1	0.0153	1.8 µM	0.0182	> 100 µM	0.0234	16.7 µM	0.0283	> 100 µM	0.0233	0.977 µM	0.0149	0.14 µM	0.034	> 100 µM	0.0312	> 69 µM	< 0.0112	> 100 µM	< 0.01	0.165
COC1CCC(OC)C(C2(C3CC(OC)CCC3OC)OC(=O)c3ccccc32)C1 (configuration not stated)	–	> 100 µM	–	> 100 µM	–	> 100 µM	–	> 100 µM	–	> 100 µM	–	> 100 µM	–	> 100 µM	–	> 100 µM	–	> 100 µM	–	> 100
Clc1ccc2nc(CI)c(CI)nc2c1	2.73	8.36 µM	1.53	7.86 µM	2.87	> 23.5 µM	2.62	8.25 µM	4.59	14.3 µM	23.1	> 58 µM	2.94	8.62 µM	8.87	23.2 µM	1.68	6.79 µM	4.73	17.2
O=C1CNC(=O)c2[nH]cnc2N1	–	> 100 µM	–	> 100 µM	–	> 100 µM	–	> 100 µM	–	> 100 µM	–	> 100 µM	–	> 100 µM	–	> 100 µM	–	> 100 µM	–	> 100
Cc1ccc(S(=O)(=O)OC(COC(=O)c2ccccc2)C(OS(=O)(=O)c2ccc(C)cc2)C(OS(=O)(=O)c2ccc(C)cc2)C(COC(=O)c2ccccc2)OS(=O)(=O)c2ccc(C)cc2)cc1 (configuration not stated)	–	> 10 µM	–	> 100 µM	–	> 100 µM	–	> 100 µM	–	> 100 µM	–	> 10 µM	–	> 100 µM	–	90 µM	–	> 100 µM	–	> 10
O=C(Nc1ccc(F)cc1)Nc1ccc(Br)c(C(F)(F)F)c1	3.58	15.2 µM	2.13	11.5 µM	2.95	15.2 µM	1.03	4.96 µM	1.67	3.11 µM	2.16	6.27 µM	2.91	11.5 µM	1.79	5.38 µM	1.88	6.49 µM	2.29	10.1
O=C(c1ccco1)c1c(C(F)(F)F)n([O-])c2cc(C(F)(F)F)ccc2[n+]1=O	0.822	2.52 µM	0.172	0.379 µM	0.688	–	0.455	1.19 µM	0.683	1.7 µM	1.65	3.13 µM	1.29	3.45 µM	1.55	2.96 µM	0.0394	0.265 µM	1.44	2.89
COc1ccc(NC(=O)c2sc3nc(C)c(C(=O)/C=C/c4cccc(OC)c4)cc3c2N)cc1	1.03	2.83 µM	1.43	> 50 µM	1.59	> 50 µM	0.989	3.08 µM	3.55	10.7 µM	6.71	46 µM	1.43	4.47 µM	1.45	4.87 µM	1.24	5.92 µM	1.39	4.11
CCOC(=O)C1=C(C)N(NC(N)=O)C2(N)N(NC(N)=O)C(C)=C(C(=O)OCC)C12C(=O)OCC (configuration not stated)	–	> 100 µM	–	> 100 µM	–	> 100 µM	–	> 100 µM	–	> 100 µM	–	> 100 µM	–	> 100 µM	–	> 100 µM	–	> 100 µM	–	> 100
C1CN(P2(N3CC3)=NP(N3CC3)(N3CC3)=NP(N3CC3)(N3CC3)=N2)CCO1 (configuration not stated)	–	> 100 µM	–	> 100 µM	–	> 100 µM	–	> 100 µM	–	> 100 µM	–	> 100 µM	–	> 100 µM	–	> 100 µM	–	> 47.4 µM	–	> 100
Cc1c(Cl)cccc1NC(=O)/C=C/c1ccccc1	–	> 100 µM	–	> 100 µM	–	> 100 µM	–	> 100 µM	–	> 100 µM	–	> 100 µM	–	> 100 µM	–	> 100 µM	–	> 100 µM	–	> 100
Cc1c(N)nc(C(CC(N)=O)NCC(N)C(N)=O)nc1C(=O)NC(C(=O)NC(C)C(O)C(C)C(=O)NC(C(=O)NCCc1nc(-c2nc(C(=O)NCCCNC(C)c3ccccc3)cs2)cs1)C(C)O)C(OC1OC(CO)C(O)C(O)C1OC1OC(CO)C(O)C(OC(N)=O)C1O)c1cnc[nH]1 (configuration not stated)	8.21	50 µM and > 100 µM	11.8	50 µM and > 100 µM	–	50 µM and > 100 µM	50.4	20.3 µM and > 100 µM	1.51	14.9 µM and 18.6 µM	–	45.6 µM	5.99	29.3 µM and > 100 µM	1.5	5.03 µM and 8.77 µM	50.3	50 µM and > 100 µM	–	8.82
